Consider 19 compounds from US4820715A, “Anti-emetic quinuclidinyl benzamides” (Bristol-Myers Company, priority 1987, dated 1989).

Assay [1] deals with dopaminergic (D2) receptors (Rattus norvegicus, UniProt P61169). In words: biochemical. In kind it is binding. As to conditions: striatal rat brain homogenates, ^3H-spiperone, 37° C., 15 minutes; read-out: 3H-Spiperone Displacement IC50. As for the experimental part: Rats (150±10 g; Charles River) were decapitated, the corpus striatum dissected out and frozen on dry ice. The tissues were pooled and stored at -80° C. until used. Homogenates (Brinkmann Polytron) of the corpus striatum in cold HEPES.KOH buffer (final pH=7.4) were centrifuged at 39,000×G. The supernatant was discarded and the pellets were re-suspended in HEPES.KOH buffer and re-centrifuged as above.
Chain of dopaminergic (D2) receptors (P61169 whole entry): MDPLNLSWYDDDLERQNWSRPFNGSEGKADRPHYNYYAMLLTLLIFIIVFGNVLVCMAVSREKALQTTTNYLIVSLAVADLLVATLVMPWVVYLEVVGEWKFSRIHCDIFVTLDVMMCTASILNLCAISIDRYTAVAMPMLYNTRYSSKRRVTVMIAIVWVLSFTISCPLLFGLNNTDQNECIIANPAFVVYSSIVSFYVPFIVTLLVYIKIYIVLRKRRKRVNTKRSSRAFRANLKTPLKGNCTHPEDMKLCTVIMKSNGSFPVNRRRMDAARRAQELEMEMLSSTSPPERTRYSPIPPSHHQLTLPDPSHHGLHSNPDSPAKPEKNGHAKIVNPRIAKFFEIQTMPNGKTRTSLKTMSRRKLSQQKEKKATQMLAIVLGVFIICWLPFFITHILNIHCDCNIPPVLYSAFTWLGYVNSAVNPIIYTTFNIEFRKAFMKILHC
Tests to determine the Inhibitory Concentration50 (IC50) of the compounds of Formula I and reference compounds versus ^3 H-spiperone were conducted as follows. Tubes containing either 100 μL of buffer mixture (for total binding), 100 μL of buffer mixture plus 100 μL of 10^-4 M D(+)-butaclamol (for blanks, i.e. non-specific binding), or 100 μL of buffer mixture containing 10^-7, 10^-6 or 10^-5 M test compound were prepared. To each were added 100 μL of a solution of ^3 H-spiperone (New England Nuclear) in buffer mixture (2000 c.p.m. in the incubation mixture) and 800 μL of the striatal tissue suspension. The tubes were then diluted to 1 mL with buffer mixture, giving a final concentration of 10^-8, 10^-7 or 10^-6 M test compound and approximately 100 pM ^3 H-spiperone. The samples were incubated at 37° C. for 15 minutes, filtered in vacuo on glass fiber filters and counted by liquid scintillation spectrometry. […] All samples were run in duplicate.

In assay [2] the test system is Apomorphine-Induced Emesis. In words: Antagonism of Apomorphine-Induced Emesis in Dogs. It counts as in vivo, beagle dogs. To be noted: Canis lupus familiaris, sc; s.c. 30 minutes prior to apomorphine 0.3 mg/kg; dog; read-out: Antagonism of Apomorphine-Induced Emesis in the Dog ED50. As for the experimental part: Unfasted beagle dogs of both sexes were used as test subjects. Test compounds and apomorphine were each administered subcutaneously as aqueous solutions, with the test compound being administered 30 minutes prior to the administration of the apormorphine.
Apomorphine was administered at a dose of 0.3 mg/kg. […] All tests were run in at least two dogs.

A further assay has as its system Cisplatin-Induced Emesis. In words: Antagonism of Cisplatin-Induced Emesis in the Ferret. As to conditions: Mustela putorius, iv, 4 h, i.v. × 2, read-out: Antagonism of Cisplatin-Induced Emesis in the Ferret, % Protection. In kind it is in vivo, Fitch ferrets. An excerpt: The ventral and dorsal area of the neck is shaved and a 3 cm incision is made. The left jugular vein is exposed and ligated with a silk suture at the cephalic end. The indwelling catheter is constructed of Silastic tubing 18 cm in length (0.020 inch I.D.×0.037 inch O.D.) with a 2 cm polyethylene sleeve (0.045 inch I.D.×0.062 inch O.D.) filled with heparin (1000 units/ml) and sealed at the exposed end with a 23 gauge×1 inch needle crimped at both ends. A small cut is made in the jugular and the catheter inserted, allowing the free end to be delivered through a 13 gauge×5 cm trochar under the skin and attached to the nape of the neck with a silk suture. The ferrets are housed in individual cages and allowed 2-4 days recovery before testing. On the test day, the test compounds were administered i.v. […] The cisplatin solution was prepared by adding 70° C. physiological saline, stirring and sonicating until dissolved. The resulting solution (4 mg/ml) was maintained at 40° C. and administered i.v. ([…]) via the catheter. Following administration of cisplatin, the ferrets were observed continuously for four hours and emetic episodes recorded. Two or more emetic episodes within a one-minutes period was considered as a single episode. The ferrets were euthanized with T-61 i.v. at the termination of the experiment, and proper placement of the catheter was verified.

In assay [3] the test system is field-stimulated guinea pig ileum. In words: Gastrokinetic Activity: contraction of field-stimulated guinea pig ileum preparations. Set-up: species or system guinea pig (Hartley). To be noted: Cavia porcellus; for EC30: effective concentration30, read-out: EC30 (95% C.L.); for EC50: effective concentration50, read-out: EC50 (95% C.L.); for minimal effective concentration: read-out: Minimum Effective Concentration. As for the experimental part:
This activity is considered to be correlated with gastrokinetic (prokinetic) activity in vivo, i.e. enhancement of gastric motility and gastric emptying.
Normal, male guinea pigs (Hartley; Charles River) weighing […] are sacrificed by cervical dislocation. The terminal portion of the ileum was removed after discarding a 10 cm segment nearest to the ileocecal junction. The strips, 3-4 cm in length, were mounted in a 20 ml organ bath containing Krebs physiological buffer solution. The buffer was bubbled with 95% O2 -5% CO2 and kept at 37° C. The resting tension was adjusted to 1.0 g, and the tissues were equilibrated without stimulation for 15 minutes. For electrical stimulation, a platinum wire (cathode) was threaded up through the lumen and another platinum wire (anode) was attached to the glass rod that suspended the muscle. Tissues were stimulated coaxially at 1.5 times the voltage necessary to produce maximum twitch height, with single pulses, 0.5 msec in duration, delivered once every 10 seconds. After the 15 minute equilibration period (without stimulation), the stimulator (Grass S88 Stimulator) was turned on and the tissues were allowed to stabilize for approximately 1 hour, or until the twitch height remained constant, with washes every 20 minutes.

[4] abbreviates: read-out: Average % Maximum Increase.

For the compound `CO[C@@H]1CN(CCCOc2ccc(F)cc2)CC[C@@H]1NC(=O)c1cc(Cl)c(N)cc1OCCSC.O` (relative stereo) [Example 61, Cis-4-amino-5-chloro-N-{1-[3-(4-fluorophenoxy)propyl]-3-methoxy-4-piperidinyl}-2-[2-(methylthio)ethoxy]benzamide monohydrate], the IC50 in assay [1] was 760 nM. Moreover, in assay [2], the ED50 is more than 3 mg/kg. Also, the inhibition in vivo at 3 mg/kg in the assay on Cisplatin-Induced Emesis was determined as 71%.
Turning to `CO[C@@H]1CN(CCCOc2ccc(F)cc2)CC[C@@H]1NC(=O)c1cc(Cl)c(N)cc1OCC(N)=O` (relative stereo) [Example 62, Cis-4-amino-2-(2-amino-2-oxoethoxy)-5-chloro-N-{1-[3-(4-fluorophenoxy)propyl]-3-methoxy-4-piperidinyl}benzamide sesquihydrate], the IC50 in assay [1] was more than 1000 nM. Further, the ED50 in assay [2] was more than 3 mg/kg. Besides, the inhibition in vivo at 3 mg/kg in the assay on Cisplatin-Induced Emesis was determined as 71%.
In the same order, the values of `C=CCN1CCCC1CNC(=O)c1cc2[nH]nnc2cc1OC` (stereo not shown) [Alizapride, reference compound] are 290 nM, 0.3 mg/kg and 27%.
In the same order, the values of `COc1cc(N)c(Cl)cc1C(=O)NC1CCN(Cc2ccccc2)CC1` [Clebopride, reference compound] are 11 nM, 0.04 mg/kg and 70%.
In the same order, the values of `C=CCC(C)(Oc1cc(N)c(Cl)cc1C(=O)NCCN(CC)CC)C(C)=O` (stereo not shown) [Example 8, 4-Amino-5-chloro-N-[2-(diethylamino)ethyl]-2-[(3-methyl)-5-hexen-2-on-3-yl]oxybenzamide] are more than 1000 nM, more than 3 mg/kg and 95%.
As for `CCN(CC)CCNC(=O)c1cc(Cl)c(N)cc1OCC(C)=NOC` [Example 11, 4-Amino-5-chloro-N-[2-(diethylamino)ethyl]-2-[(2-methoxyimino)propan-1-yl]oxybenzamide], the IC50 in assay [1] is more than 1000 nM. Further, the ED50 in assay [2] was more than 3 mg/kg. Moreover, the inhibition in vivo at 3 mg/kg with Cisplatin-Induced Emesis stood at 90%.
With `CCN(CC)CCNC(=O)c1cc(Cl)c(N)cc1OC(C)C#N` (stereo not shown) [Example 14, 4-Amino-5-chloro-[2-(diethylamino)ethyl]-2-(1-cyano)ethoxybenzamide], in assay [2], the 50% effective dose (ED50) was more than 3 mg/kg. For the same compound, the inhibition in vivo at 3 mg/kg with Cisplatin-Induced Emesis is 62%. Also, the activation at 30 µM in assay [3] (setting [4]) stood at 55%. Further, in assay [3], the EC30 turned out to be 4300 nM, the EC50 amounted to 18000 nM and the minimal effective concentration is 0.1 µM.
Take `CCN(CC)CCNC(=O)c1cc(Cl)c(N)cc1OCc1cc(C)no1` [Example 19, 4-Amino-5-chloro-N-[2-(diethylamino)ethyl]-2-(3-methylisoxazol-5-yl)methoxybenzamide]: the ED50 in assay [2] is more than 3 mg/kg. In addition, the inhibition in vivo at 3 mg/kg with Cisplatin-Induced Emesis is 72%. In assay [3] (at 3 μM, read-out: Average % Maximum Increase), the activation at 3 µM was determined as 39%. In addition, in assay [3], the EC30 was found to be 1700 nM, the concentration giving a half-maximal response (EC50) came out at 5900 nM and the minimal effective concentration stood at 0.1 µM.
As to `CCN(CC)CCNC(=O)c1cc(Cl)c(N)cc1OCCSC` [Example 20, 4-Amino-5-chloro-N-[2-(diethylamino)ethyl]-2-[2-(methylthio)ethoxy]benzamide], in assay [1], the IC50 was more than 1000 nM. Moreover, in assay [2], the ED50 was more than 3 mg/kg. Further, the inhibition in vivo at 3 mg/kg in the assay with Cisplatin-Induced Emesis worked out at 50%.
As to `CC(=O)C(C)Oc1cc(N)c(Cl)cc1C(=O)NCCN(C)C` (stereo not shown) [Example 32, 4-Amino-2-(2-butanon-3-yl)oxy-5-chloro-N-[2-(dimethylamino)ethyl]benzamide], in assay [1], the IC50 is more than 1000 nM. Besides, in assay [2], the ED50 is more than 3 mg/kg. Besides, the inhibition in vivo at 1 mg/kg in the assay with Cisplatin-Induced Emesis stood at 72%.
In the same order, the values of `CCN(CC)CCNC(=O)c1cc(Cl)c(N)cc1OC(C)C(C)=NO` (stereo not shown) [Example 34, 4-Amino-5-chloro-N-[2-(diethylamino)ethyl]-2-(2-hydroxyiminobut-3-yl)oxybenzamide] are more than 1000 nM, more than 3 mg/kg and 54%.
Turning to `CCOC(=O)C(Oc1cc(N)c(Cl)cc1C(=O)NCCN(CC)CC)c1ccccc1` (stereo not drawn) [Example 35, α-{3-Amino-4-chloro-6-[N-(2-[diethylamino]ethyl)]carbomoylphenoxy}phenylacetic acid, ethyl ester], in assay [1], the IC50 is more than 1000 nM. The ED50 in assay [2] was more than 3 mg/kg. The inhibition in vivo at 3 mg/kg in the assay with Cisplatin-Induced Emesis is 72%.
For `CCN(CC)CCNC(=O)c1cc(Cl)c(N)cc1OCCCN1C(=O)c2ccccc2C1=O` [Example 38, 4-Amino-5-chloro-N-[2-(diethylamino)ethyl]-2-[3-(phthalimido)propoxy]benzamide], the concentration for half-maximal inhibition (IC50) in assay [1] was more than 1000 nM. Moreover, the ED50 in assay [2] was more than 3 mg/kg. For the same compound, in the assay with Cisplatin-Induced Emesis, the inhibition in vivo at 3 mg/kg stood at 57%.
In the same order, the values of `CCN(CC)CCNC(=O)c1cc(Cl)c(N)cc1OCCCN` [Example 39, 4-Amino-2-(3-aminopropoxy)-5-chloro-N-[2-(diethylamino)ethyl]benzamide] are more than 1000 nM, more than 3 mg/kg and 71%.
Regarding `CCOC(=O)C=C(COc1cc(N)c(Cl)cc1C(=O)NCCN(CC)CC)OC` [Example 42, 4-Amino-5-chloro-N-[2-(diethylamino)ethyl]-2-(ethyl-3-methoxycroton-4-yl)oxybenzamide], in assay [1], the IC50 was more than 1000 nM. The ED50 in assay [2] is more than 3 mg/kg. Also, the inhibition in vivo at 3 mg/kg in the assay with Cisplatin-Induced Emesis is 95%.
Regarding `CCN(CC)CCNC(=O)c1cc(Cl)c(N)cc1OCC1=NCCN1` [Example 51, 4-Amino-5-chloro-N-[2-(diethylamino)ethyl]-2-(1H-4,5-dihydroimidazol-2-yl)methoxybenzamide], the 50% effective dose (ED50) in assay [2] was more than 3 mg/kg. In addition, in the assay with Cisplatin-Induced Emesis, the inhibition in vivo at 3 mg/kg worked out at 71%. Besides, the activation at 10 µM in assay [3] (at 10 μM, read-out: Average % Maximum Increase) is 51%. In addition, in assay [3], the EC30 was 230 nM, the EC50 came to 5000 nM and the minimal effective concentration was determined as 0.03 µM.
Consider `CCN(CC)CCNC(=O)c1cc(Cl)c(N)cc1OCC(=O)c1cccs1` [Example 52, 4-Amino-5-chloro-N-[2-(diethylamino)ethyl]-2-(2-thienoylmethoxy)benzamide], for which the median effective dose (ED50) in assay [2] is more than 3 mg/kg. Also, in the assay with Cisplatin-Induced Emesis, the inhibition in vivo at 3 mg/kg came out at 95%.
For `CCN(CC)CCNC(=O)c1cc(Cl)c(N)cc1OCCC1(C)OCCO1` [Example 54], in that order: more than 3 mg/kg and 81%.
Regarding `CCN(CC)CCNC(=O)c1cc(Cl)c(N)cc1OC` [Metoclopramide, reference compound], the ED50 in assay [2] is 0.5 mg/kg. Besides, the inhibition in vivo at 3 mg/kg in the assay on Cisplatin-Induced Emesis was found to be 89%. Further, the activation at 30 µM in assay [3] (setting [4]) is 62%. Moreover, in assay [3], the EC30 came out at 1600 nM, the EC50 is 11000 nM and the minimal effective concentration was determined as 0.03 µM.

As a reminder, the IC50 is the concentration that gives 50% inhibition. In general, ED50 refers to the dose at which the effect has come halfway, by size or by number of responders. The EC30 is the point of the concentration-response curve where the effect stands at 30%. As usually defined, the EC50 is the concentration at which the effect is half-maximal.
